Tested on: MV-4-11 cells
Experiment: Gene expression microarray analysis (Affymetrix PrimeView) and GSEA
Type: cell-based, human
Parameters: RFU PODN (11730768_x_at) / Fold change /veh PODN (11730768_x_at) / RFU LINC00158 (11744669_a_at) / Fold change /veh LINC00158 (11744669_a_at) / RFU DUSP10 (11751237_a_at) / Fold change /veh DUSP10 (11751237_a_at) / RFU ID3 (11757404_x_at) / Fold change /veh ID3 (11757404_x_at) / RFU PLEKHG5 (11737974_s_at) / Fold change /veh PLEKHG5 (11737974_s_at) / RFU LRRC4B (11730491_at) / Fold change /veh LRRC4B (11730491_at) / RFU GIMAP4 (11747438_a_at) / Fold change /veh GIMAP4 (11747438_a_at) / RFU KRT8 (11758183_x_at) / Fold change /veh KRT8 (11758183_x_at) / RFU CNN1 (11734310_a_at) / Fold change /veh CNN1 (11734310_a_at) / RFU VPS37D (11726825_at) / Fold change /veh VPS37D (11726825_at) / RFU C10orf10 (11716522_x_at) / Fold change /veh C10orf10 (11716522_x_at) / RFU KIR2DL2 /// KIR2DL4 /// KIR2DL5A /// KIR2DL5B /// KIR2DS1 /// KIR2DS2 /// KIR2DS3 /// KIR2DS4 /// KIR3DL3 /// KIR3DL3 /// KIR3DS1 (11738374_at) / Fold change /veh KIR2DL2 /// KIR2DL4 /// KIR2DL5A /// KIR2DL5B /// KIR2DS1 /// KIR2DS2 /// KIR2DS3 /// KIR2DS4 /// KIR3DL3 /// KIR3DL3 /// KIR3DS1 (11738374_at) / RFU C1QL1 (11718748_at) / Fold change /veh C1QL1 (11718748_at) / RFU TMPRSS4 (11747572_a_at) / Fold change /veh TMPRSS4 (11747572_a_at) / RFU HAMP (11756126_x_at) / Fold change /veh HAMP (11756126_x_at) / RFU RNFT2 (11725882_a_at) / Fold change /veh RNFT2 (11725882_a_at) / RFU NR4A2 (11747474_a_at) / Fold change /veh NR4A2 (11747474_a_at) / RFU ABCC12 (11746883_a_at) / Fold change /veh ABCC12 (11746883_a_at) / RFU TMEM136 (11760407_x_at) / Fold change /veh TMEM136 (11760407_x_at) / RFU CLDN22 /// WWC2 (11732394_at) / Fold change /veh CLDN22 /// WWC2 (11732394_at) / RFU HLA-DPB1 (11760878_x_at) / Fold change /veh HLA-DPB1 (11760878_x_at) / RFU SPINT1 (11716480_a_at) / Fold change /veh SPINT1 (11716480_a_at) / RFU GAP43 (11754022_s_at) / Fold change /veh GAP43 (11754022_s_at) / RFU A4GNT (11735810_at) / Fold change /veh A4GNT (11735810_at) / RFU PRB3 (11715151_x_at) / Fold change /veh PRB3 (11715151_x_at) / RFU TUBB4B (11761932_at) / Fold change /veh TUBB4B (11761932_at) / RFU CAPN14 (11732068_a_at) / Fold change /veh CAPN14 (11732068_a_at) / RFU TMCC2 (11721928_a_at) / Fold change /veh TMCC2 (11721928_a_at) / RFU IRGQ (11745062_a_at) / Fold change /veh IRGQ (11745062_a_at) / RFU FAM174B (11720279_a_at) / Fold change /veh FAM174B (11720279_a_at) / RFU TMPRSS4 (11748680_a_at) / Fold change /veh TMPRSS4 (11748680_a_at) / RFU FAM212B (11763350_a_at) / Fold change /veh FAM212B (11763350_a_at) / RFU PLEKHG5 (11743358_a_at) / Fold change /veh PLEKHG5 (11743358_a_at) / RFU ZSCAN30 (11745921_a_at) / Fold change /veh ZSCAN30 (11745921_a_at) / RFU CMKLR1 (11741424_a_at) / Fold change /veh CMKLR1 (11741424_a_at) / RFU LOC101060620 /// MAPK8IP1 (11723275_at) / Fold change /veh LOC101060620 /// MAPK8IP1 (11723275_at) / RFU SPTSSB (11747773_x_at) / Fold change /veh SPTSSB (11747773_x_at) / RFU PRSS12 (11739890_at) / Fold change /veh PRSS12 (11739890_at) / RFU BIN1 (11741810_x_at) / Fold change /veh BIN1 (11741810_x_at) / RFU WNT11 (11732464_a_at) / Fold change /veh WNT11 (11732464_a_at) / RFU C10orf10 (11716521_a_at) / Fold change /veh C10orf10 (11716521_a_at) / RFU C5orf56 (11738089_at) / Fold change /veh C5orf56 (11738089_at) / RFU CYB561 (11721691_x_at) / Fold change /veh CYB561 (11721691_x_at) / RFU ANKRD19P (11752326_a_at) / Fold change /veh ANKRD19P (11752326_a_at) / RFU OR2T12 /// OR2T33 /// OR2T8 (11738714_s_at) / Fold change /veh OR2T12 /// OR2T33 /// OR2T8 (11738714_s_at) / RFU VCAN (11748164_a_at) / Fold change /veh VCAN (11748164_a_at) / RFU JSRP1 (11732532_at) / Fold change /veh JSRP1 (11732532_at) / RFU KRTAP10-11 (11738290_x_at) / Fold change /veh KRTAP10-11 (11738290_x_at) / RFU MYO3A (11730013_a_at) / Fold change /veh MYO3A (11730013_a_at) / RFU EBF3 (11725865_a_at) / Fold change /veh EBF3 (11725865_a_at) / RFU CAMK2N1 (11719241_x_at) / Fold change /veh CAMK2N1 (11719241_x_at) / RFU C5orf56 (11738088_a_at) / Fold change /veh C5orf56 (11738088_a_at) / RFU OLFML3 (11715873_a_at) / Fold change /veh OLFML3 (11715873_a_at) / RFU LOC100653217 /// NTM (11731650_a_at) / Fold change /veh LOC100653217 /// NTM (11731650_a_at) / RFU MAPK11 (11762145_a_at) / Fold change /veh MAPK11 (11762145_a_at) / RFU FIZ1 (11724087_x_at) / Fold change /veh FIZ1 (11724087_x_at) / RFU OASL (11726364_x_at) / Fold change /veh OASL (11726364_x_at) / RFU SOX15 (11748057_x_at) / Fold change /veh SOX15 (11748057_x_at) / RFU CD79A (11719716_a_at) / Fold change /veh CD79A (11719716_a_at) / RFU HIST1H1D (11736915_at) / Fold change /veh HIST1H1D (11736915_at) / RFU CASKIN2 (11723855_a_at) / Fold change /veh CASKIN2 (11723855_a_at) / RFU LOC730098 (11760151_x_at) / Fold change /veh LOC730098 (11760151_x_at) / RFU OR4N2 (11742367_at) / Fold change /veh OR4N2 (11742367_at) / RFU PRRT2 (11749266_a_at) / Fold change /veh PRRT2 (11749266_a_at) / RFU SNX32 (11753110_a_at) / Fold change /veh SNX32 (11753110_a_at) / RFU CDHR5 (11726645_a_at) / Fold change /veh CDHR5 (11726645_a_at) / RFU RCAN1 (11760418_a_at) / Fold change /veh RCAN1 (11760418_a_at) / RFU FAM167A (11723789_a_at) / Fold change /veh FAM167A (11723789_a_at) / RFU FAM26E (11764081_at) / Fold change /veh FAM26E (11764081_at) / RFU ISYNA1 (11749810_s_at) / Fold change /veh ISYNA1 (11749810_s_at) / RFU ACY1 (11761880_at) / Fold change /veh ACY1 (11761880_at) / RFU 11764098_at / Fold change /veh 11764098_at / RFU SAMD14 (11745864_x_at) / Fold change /veh SAMD14 (11745864_x_at) / RFU NPB (11741838_a_at) / Fold change /veh NPB (11741838_a_at) / RFU TMPRSS6 (11731388_a_at) / Fold change /veh TMPRSS6 (11731388_a_at) / RFU KRTAP10-2 (11738614_at) / Fold change /veh KRTAP10-2 (11738614_at) / RFU ARHGAP8 /// PRR5-ARHGAP8 (11727945_x_at) / Fold change /veh ARHGAP8 /// PRR5-ARHGAP8 (11727945_x_at) / RFU KRTAP5-7 /// NADSYN1 (11734609_at) / Fold change /veh KRTAP5-7 /// NADSYN1 (11734609_at) / RFU RASL12 (11751679_a_at) / Fold change /veh RASL12 (11751679_a_at) / RFU CDKN2B (11736163_a_at) / Fold change /veh CDKN2B (11736163_a_at) / RFU PRF1 (11729649_at) / Fold change /veh PRF1 (11729649_at) / RFU, ZNF638 /// ZNF638-IT1 / Fold change vs veh, ZNF638 /// ZNF638-IT1 / RFU, PANK3 / Fold change vs veh, PANK3 / RFU, SH3YL1 / Fold change vs veh, SH3YL1 / RFU, ZEB2 / Fold change vs veh, ZEB2 / RFU, NRIP1 / Fold change vs veh, NRIP1 / RFU, PTTG1IP / Fold change vs veh, PTTG1IP / RFU, CAPN2 / Fold change vs veh, CAPN2 / RFU, MED14 / Fold change vs veh, MED14 / RFU, SNORA58 / Fold change vs veh, SNORA58 / RFU, C1orf63 / Fold change vs veh, C1orf63 / RFU, LRRFIP1 / Fold change vs veh, LRRFIP1 / RFU, NDUFAF7 / Fold change vs veh, NDUFAF7 / RFU, SLC12A2 / Fold change vs veh, SLC12A2 / RFU, IBTK / Fold change vs veh, IBTK / RFU, ESF1 / Fold change vs veh, ESF1 / Fold change vs veh, TMEM50B / RFU, TAOK1 / Fold change vs veh, TAOK1 / RFU, ACBD3 / Fold change vs veh, ACBD3 / RFU, TMA16 / Fold change vs veh, TMA16 / RFU, RWDD3 / Fold change vs veh, RWDD3 / RFU, BCAT1 / Fold change vs veh, BCAT1 / RFU, EDEM3 / Fold change vs veh, EDEM3 / RFU, TMEM33 / Fold change vs veh, TMEM33 / RFU, WDR75 / Fold change vs veh, WDR75 / RFU, AHCTF1 / Fold change vs veh, AHCTF1 / RFU, TFRC / Fold change vs veh, TFRC / RFU, ZDHHC17 / Fold change vs veh, ZDHHC17 / RFU, NOM1 / Fold change vs veh, NOM1 / RFU, ARL8B / Fold change vs veh, ARL8B / RFU, ZBTB11 / Fold change vs veh, ZBTB11 / RFU, TAMM41 / Fold change vs veh, TAMM41 / RFU, KIAA1704 /// LOC100996395 / Fold change vs veh, KIAA1704 /// LOC100996395 / RFU, ING1 / Fold change vs veh, ING1 / RFU, TRMT61B / Fold change vs veh, TRMT61B / RFU, FUBP3 / Fold change vs veh, FUBP3 / RFU, TP53 / Fold change vs veh, TP53 / RFU, TNKS2 / Fold change vs veh, TNKS2 / RFU, ZFP14 / Fold change vs veh, ZFP14 / RFU, ACTR2 / Fold change vs veh, ACTR2 / RFU, PPP3R1 / Fold change vs veh, PPP3R1 / RFU, PIK3R1 / Fold change vs veh, PIK3R1 / RFU, HNRNPA1 / Fold change vs veh, HNRNPA1 / RFU, RNF170 / Fold change vs veh, RNF170 / RFU, ZNF28 / Fold change vs veh, ZNF28 / RFU, RNGTT / Fold change vs veh, RNGTT / RFU, OGT / Fold change vs veh, OGT / RFU, BRD1 / Fold change vs veh, BRD1 / RFU, MARS / Fold change vs veh, MARS / RFU, ZNF655 / Fold change vs veh, ZNF655 / RFU, FAHD1 / Fold change vs veh, FAHD1 / RFU, BDP1 / Fold change vs veh, BDP1 / RFU, LRRCC1 / Fold change vs veh, LRRCC1 / RFU, ARID1A / Fold change vs veh, ARID1A / RFU, ZNF146 / Fold change vs veh, ZNF146 / RFU, ZNF330 / Fold change vs veh, ZNF330 / RFU, GPN3 / Fold change vs veh, GPN3 / RFU, C9orf123 / Fold change vs veh, C9orf123 / RFU, N4BP2L2 / Fold change vs veh, N4BP2L2 / RFU, ARFIP1 / Fold change vs veh, ARFIP1 / RFU, FAM179B / Fold change vs veh, FAM179B / RFU, BCL10 / Fold change vs veh, BCL10 / RFU, UHRF1BP1L / Fold change vs veh, UHRF1BP1L / RFU, BET1 / Fold change vs veh, BET1 / RFU, CNOT2 / Fold change vs veh, CNOT2 / RFU, ZNF268 / Fold change vs veh, ZNF268 / Fold change vs veh, ZNF507 / RFU, DGCR2 / Fold change vs veh, DGCR2 / RFU, WDSUB1 / Fold change vs veh, WDSUB1 / Fold change vs veh, HSP90B1 /// MIR3652 / RFU, ADSS / Fold change vs veh, ADSS / RFU, GK / Fold change vs veh, GK / RFU, ZNF148 / Fold change vs veh, ZNF148 / RFU, TAF9 / Fold change vs veh, TAF9 / RFU, SLC1A5 / Fold change vs veh, SLC1A5 / RFU, SLMO2 / Fold change vs veh, SLMO2 / RFU, ABCC4 / Fold change vs veh, ABCC4 / RFU, LOC101060439 /// RAP1B / Fold change vs veh, LOC101060439 /// RAP1B / RFU, RFX7 / Fold change vs veh, RFX7 / RFU, GTPBP10 / Fold change vs veh, GTPBP10 / RFU, CNEP1R1 / Fold change vs veh, CNEP1R1 / RFU, BIVM-ERCC5 /// ERCC5 / Fold change vs veh, BIVM-ERCC5 /// ERCC5 / RFU, ILF3 / Fold change vs veh, ILF3 / RFU 11762660_at / Fold change /veh 11762660_at / RFU VCAN (11757783_s_at) / Fold change /veh VCAN (11757783_s_at) / RFU DDX43 (11728927_at) / Fold change /veh DDX43 (11728927_at) / RFU KRT8 (11758188_x_at) / Fold change /veh KRT8 (11758188_x_at) / RFU NKD1 (11759106_at) / Fold change /veh NKD1 (11759106_at) / RFU SRD5A1 (11742802_a_at) / Fold change /veh SRD5A1 (11742802_a_at) / RFU TPSAB1 /// TPSB2 (11721975_s_at) / Fold change /veh TPSAB1 /// TPSB2 (11721975_s_at) / RFU GSTM3 (11746129_a_at) / Fold change /veh GSTM3 (11746129_a_at) / RFU IL23R (11737362_x_at) / Fold change /veh IL23R (11737362_x_at) / RFU TMEM51 (11727254_a_at) / Fold change /veh TMEM51 (11727254_a_at) / RFU PIWIL2 (11732686_x_at) / Fold change /veh PIWIL2 (11732686_x_at) / RFU ORM1 (11744905_x_at) / Fold change /veh ORM1 (11744905_x_at) / RFU CCDC152 (11743942_at) / Fold change /veh CCDC152 (11743942_at) / RFU ECM1 (11717891_a_at) / Fold change /veh ECM1 (11717891_a_at) / RFU IL23R (11748794_a_at) / Fold change /veh IL23R (11748794_a_at) / RFU TNFAIP8L3 (11732012_x_at) / Fold change /veh TNFAIP8L3 (11732012_x_at) / RFU MBOAT4 (11741988_at) / Fold change /veh MBOAT4 (11741988_at) / RFU 11764193_at / Fold change /veh 11764193_at / RFU TMEM53 (11763286_at) / Fold change /veh TMEM53 (11763286_at) / RFU MAGEB2 (11727129_at) / Fold change /veh MAGEB2 (11727129_at) / RFU TMEM200A (11744735_a_at) / Fold change /veh TMEM200A (11744735_a_at) / RFU CCDC152 (11751479_a_at) / Fold change /veh CCDC152 (11751479_a_at) / RFU FAM211A (11726209_a_at) / Fold change /veh FAM211A (11726209_a_at) / RFU RGS16 (11746705_a_at) / Fold change /veh RGS16 (11746705_a_at) / RFU VCAN (11755009_s_at) / Fold change /veh VCAN (11755009_s_at) / RFU RHOB (11743442_s_at) / Fold change /veh RHOB (11743442_s_at) / RFU RGS16 (11720943_a_at) / Fold change /veh RGS16 (11720943_a_at) / RFU RGS16 (11720944_at) / Fold change /veh RGS16 (11720944_at) / RFU, VPS4B / Fold change vs veh, VPS4B / RFU, CREB1 / Fold change vs veh, CREB1 / RFU, DNAJC13 / Fold change vs veh, DNAJC13 / RFU, GNAQ / Fold change vs veh, GNAQ / RFU, CDK5R1 / Fold change vs veh, CDK5R1 / RFU, ZRANB3 / Fold change vs veh, ZRANB3 / RFU, CUL4A / Fold change vs veh, CUL4A / RFU, CCNY / Fold change vs veh, CCNY / RFU, UFL1 / Fold change vs veh, UFL1 / RFU, COG3 / Fold change vs veh, COG3 / RFU, DIAPH2 / Fold change vs veh, DIAPH2 / RFU, SKA2 / Fold change vs veh, SKA2 / RFU, AFF3 / Fold change vs veh, AFF3 / RFU, LMF1 / Fold change vs veh, LMF1 / RFU, IPO11 / Fold change vs veh, IPO11 / RFU, DFFB / Fold change vs veh, DFFB / RFU, FOXP1 / Fold change vs veh, FOXP1 / RFU, CARD8 / Fold change vs veh, CARD8 / RFU, STRN3 / Fold change vs veh, STRN3 / RFU, ADK / Fold change vs veh, ADK / RFU, RASSF2 / Fold change vs veh, RASSF2 / RFU, WIPF1 / Fold change vs veh, WIPF1 / RFU, LARP1B / Fold change vs veh, LARP1B / RFU, RASA1 / Fold change vs veh, RASA1 / RFU, RB1 / Fold change vs veh, RB1 / RFU, PPFIA1 / Fold change vs veh, PPFIA1 / RFU, MAT2A / Fold change vs veh, MAT2A / RFU, CCT5 / Fold change vs veh, CCT5 / RFU, WDR92 / Fold change vs veh, WDR92 / RFU, CUX1 / Fold change vs veh, CUX1 / RFU, TTC7A / Fold change vs veh, TTC7A / RFU, TMEM135 / Fold change vs veh, TMEM135 / RFU, DEPTOR / Fold change vs veh, DEPTOR / RFU, CPM / Fold change vs veh, CPM / RFU, DNAJB6 / Fold change vs veh, DNAJB6 / RFU, CACNA2D3 / Fold change vs veh, CACNA2D3 / RFU, DTX4 / Fold change vs veh, DTX4 / RFU, TFCP2 / Fold change vs veh, TFCP2 / RFU, GMCL1 /// GMCL1P1 / Fold change vs veh, GMCL1 /// GMCL1P1 / RFU, AEBP2 / Fold change vs veh, AEBP2 / RFU, SNHG1 /// SNORD22 /// SNORD25 /// SNORD26 /// SNORD27 /// SNORD28 /// SNORD29 /// SNORD31 / Fold change vs veh, SNHG1 /// SNORD22 /// SNORD25 /// SNORD26 /// SNORD27 /// SNORD28 /// SNORD29 /// SNORD31 / Fold change (Aza/veh), C12orf56 (ProbeSet 11735607_a_at) / Fold change (ACY-1035/veh), C12orf56 (ProbeSet 11735607_a_at) / Fold change (Aza/veh), FGFR1OP (ProbeSet 11751329_s_at) / Fold change (ACY-1035/veh), FGFR1OP (ProbeSet 11751329_s_at) / Fold change (Aza/veh), VPS36 (ProbeSet 11739960_a_at) / Fold change (ACY-1035/veh), VPS36 (ProbeSet 11739960_a_at) / RFU SYPL1 (11715823_x_at) / Fold change /veh SYPL1 (11715823_x_at) / RFU IGFBP7 (11715501_s_at) / Fold change /veh IGFBP7 (11715501_s_at) / RFU REEP3 (11722064_at) / Fold change /veh REEP3 (11722064_at) / RFU IGLL1 (11728026_x_at) / Fold change /veh IGLL1 (11728026_x_at): dose or concentration left out as unconfirmed
Conditions: ProbeSet 11728314_at; LIST B

## Nc1ncn([C@@H]2O[C@H](CO)[C@@H](O)[C@H]2O)c(=O)n1 [azacitidine]
  Fold change vs veh, ZNF148: 0.99

— paper PMC5218480 (PLoS ONE, 2017)
